Values of other authors, collected in US8686137B2, “Heterocyclic compounds and their uses” (Amgen Inc., priority 2010, dated 2014).

Tests used:
[1] = system: passive cutaneous anaphylaxis (PCA); conditions: absence of functional delta (compound or p110δ D910A mice)
[2] = system: ovalbumin-induced airway inflammation
p110δ = biological target: T1, p110δ (Homo sapiens, UniProt O00329)
T1 sequence (O00329 1-1044): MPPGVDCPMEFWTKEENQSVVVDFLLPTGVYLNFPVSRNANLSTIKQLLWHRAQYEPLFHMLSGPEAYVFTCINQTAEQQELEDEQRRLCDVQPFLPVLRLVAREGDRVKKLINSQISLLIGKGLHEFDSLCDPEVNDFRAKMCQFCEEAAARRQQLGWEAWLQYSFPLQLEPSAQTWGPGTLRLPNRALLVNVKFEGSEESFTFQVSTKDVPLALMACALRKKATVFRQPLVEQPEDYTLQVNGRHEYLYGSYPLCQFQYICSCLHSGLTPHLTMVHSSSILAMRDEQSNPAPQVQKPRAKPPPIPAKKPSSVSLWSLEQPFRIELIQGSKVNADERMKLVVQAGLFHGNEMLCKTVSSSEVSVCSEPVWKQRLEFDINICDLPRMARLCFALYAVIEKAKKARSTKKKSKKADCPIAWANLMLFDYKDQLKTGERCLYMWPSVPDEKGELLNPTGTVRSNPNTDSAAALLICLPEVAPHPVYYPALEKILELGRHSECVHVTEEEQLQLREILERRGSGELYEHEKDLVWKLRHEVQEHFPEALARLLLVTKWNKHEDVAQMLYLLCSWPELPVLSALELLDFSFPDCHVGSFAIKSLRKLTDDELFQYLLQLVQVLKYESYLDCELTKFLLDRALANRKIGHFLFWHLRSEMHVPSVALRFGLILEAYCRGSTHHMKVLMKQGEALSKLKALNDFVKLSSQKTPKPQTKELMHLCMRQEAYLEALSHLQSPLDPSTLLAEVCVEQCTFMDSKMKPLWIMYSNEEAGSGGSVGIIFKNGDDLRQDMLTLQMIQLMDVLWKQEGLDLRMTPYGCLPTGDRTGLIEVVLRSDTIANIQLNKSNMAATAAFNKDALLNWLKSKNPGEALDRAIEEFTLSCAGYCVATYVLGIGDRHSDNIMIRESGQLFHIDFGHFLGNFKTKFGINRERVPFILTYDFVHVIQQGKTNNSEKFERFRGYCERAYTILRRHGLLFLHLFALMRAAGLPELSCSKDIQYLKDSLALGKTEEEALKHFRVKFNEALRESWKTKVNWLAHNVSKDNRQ

[3] = system: mouse model of rheumatoid arthritis; conditions: in vivo
[4] = system: model of systemic lupus erythematosis; conditions: in vivo

SMILES	activity against any protein kinases tested (protein kinases)	passive cutaneous anaphylaxis (PCA) [1]	inflammation and disease in a murine model of asthma [2]	inhibits p110δ (p110δ)	efficacy in a mouse model of rheumatoid arthritis [3]	onset of disease in a model of systemic lupus erythematosis [4]
Cc1ccccc1-n1c(Cn2cnc3c(N)ncnc32)nc2cccc(C)c2c1=O [IC87114]	no activity	significantly reduced	significantly ameliorate	high nanomolar range (triple digit)	–	–
O=C1NC(=O)/C(=C\c2ccc3nccnc3c2)S1 [AS 605240]	–	–	–	–	efficacious	delay onset of disease
